Results reported in patent US20250295799A1, “ANTIBODY-DRUG CONJUGATES TARGETING GLYPICAN-3 AND METHODS OF USE” (Zymeworks BC Inc., priority 2022, published 2025).

Experiments:
[1] = system: cynomolgus monkey GPC3 on transfected CHO-S cells; experiment: Binding to transfected CHO-S cells by flow cytometry; details: 24 h at 4 °C
Protocol: Briefly, CHO—S cells were transiently transfected for −24 hours with a pTT5-based expression plasmid encoding human GPC3 or cynomolgus monkey GPC3, 0.5 μg DNA per 1 million cells, using the Neon™ Transfection System (Thermo Fisher Scientific Corp., Waltham, MA), to transiently express human or cynomolgus monkey GPC3. Following transfection, cells were seeded at 50,000 cells/well in V-bottom 96-well plates and treated with antibody for 24 hours at 4° C. to prevent internalization. […] Following incubation and washing, fluorescence was detected by flow cytometry on a BD LSRFortessa™ Cell Analyzer (BD Biosciences, Franklin Lake, NJ) with 1,000 minimum events collected per well. AF647/APC-A GeoMean (fluorescence signal geometric mean, proportional to anti-Human AF647 binding) in live cell population was plotted against antibody concentration using GraphPad Prism Version 9 (GraphPad Software, San Diego, CA). The Bmax and Kd values were derived from the “Specific binding with Hill slope” nonlinear regression curve fit in GraphPad Prism Version 9.
Briefly, CHO—S cells were transiently transfected for −24 hours with a pTT5-based expression plasmid encoding human GPC3 or cynomolgus monkey GPC3, 0.5 μg DNA per 1 million cells, using the Neon™ Transfection System (Thermo Fisher Scientific Corp., Waltham, MA), to transiently express human or cynomolgus monkey GPC3. […]

[2] = system: GFP-transfected CHO cells; experiment: Binding to transfected CHO-S cells by flow cytometry (negative transfection control)
Protocol: Briefly, CHO—S cells were transiently transfected for −24 hours with a pTT5-based expression plasmid encoding human GPC3 or cynomolgus monkey GPC3, 0.5 μg DNA per 1 million cells, using the Neon™ Transfection System (Thermo Fisher Scientific Corp., Waltham, MA), to transiently express human or cynomolgus monkey GPC3. Cells transfected with GFP were used as negative transfection controls. Following transfection, cells were seeded at 50,000 cells/well in V-bottom 96-well plates and treated with antibody for 24 hours at 4° C. to prevent internalization. […] Following incubation and washing, fluorescence was detected by flow cytometry on a BD LSRFortessa™ Cell Analyzer (BD Biosciences, Franklin Lake, NJ) with 1,000 minimum events collected per well. AF647/APC-A GeoMean (fluorescence signal geometric mean, proportional to anti-Human AF647 binding) in live cell population was plotted against antibody concentration using GraphPad Prism Version 9 (GraphPad Software, San Diego, CA). The Bmax and Kd values were derived from the “Specific binding with Hill slope” nonlinear regression curve fit in GraphPad Prism Version 9.

JHH-5 cells (GPC3-mid) = experiment: On-cell binding by flow cytometry
Protocol: (§1) Briefly, cells were seeded at 50,000 cells/well in V-bottom 96-well plates and treated with antibody for 24 hours at 4° C. to prevent internalization. […] Following incubation and washing, fluorescence was detected by flow cytometry on a BD LSRFortessa™ Cell Analyzer (BD Biosciences, Franklin Lake, NJ) with 1,000 minimum events collected per well. AF647/APC-A GeoMean (fluorescence signal geometric mean, proportional to anti-Human AF647 binding) in live cell population was plotted against antibody concentration using GraphPad Prism Version 9 (GraphPad Software, San Diego, CA). The Bmax, Curve Hill Slope (h) and Kd values were derived from the “Specific binding with Hill slope” nonlinear regression curve fit in GraphPad Prism Version 9.
(§2) The on-cell binding capabilities of light chain (LC)-modified M3-H18L6 antibody constructs were assessed on JHH-7 (hepatocellular carcinoma; GPC3-high) and JHH-5 (hepatocellular carcinoma; GPC3-mid) by flow cytometry as described below. […] The assay was carried out as described in Example 13.
(§3) Briefly, plasma stress was carried out by incubating M3-H18L6 LC-modified antibodies in mouse plasma (BioIVT, Westbury, NY; Cat. No. MSE00PL38NC-0103070) for 14 days in a 37° C./5% CO2 incubator. […] Following incubation and washing, fluorescence was detected by flow cytometry on a BD LSRFortessa™ Cell Analyzer (BD Biosciences, Franklin Lake, NJ) with 1,000 minimum events collected per well. AF647/APC-A GeoMean (fluorescence signal geometric mean, proportional to anti-Human AF647 binding) in live cell population was plotted against antibody concentration using GraphPad Prism Version 9 (GraphPad Software, San Diego, CA). […] Following incubation, cells were dissociated, washed, and surface AF488 fluorescence was quenched using an anti-AF488 antibody (Life Technologies, Carlsbad, CA; Cat. No. A-11094) at 100 nM for 30 minutes at 4° C. Quenched AF488 fluorescence (internalized fluorescence) was detected by flow cytometry on a BD LSRFortessa™ Cell Analyzer (BD Biosciences, Franklin Lake, NJ) with 1,000 minimum events collected per well.

JHH-7 cells (GPC3-high) = experiment: On-cell binding by flow cytometry; details: flow cytometry
Protocol: as §1, §2, §3

Chain of cynomolgus monkey GPC3 on transfected CHO-S cells (as listed by the source): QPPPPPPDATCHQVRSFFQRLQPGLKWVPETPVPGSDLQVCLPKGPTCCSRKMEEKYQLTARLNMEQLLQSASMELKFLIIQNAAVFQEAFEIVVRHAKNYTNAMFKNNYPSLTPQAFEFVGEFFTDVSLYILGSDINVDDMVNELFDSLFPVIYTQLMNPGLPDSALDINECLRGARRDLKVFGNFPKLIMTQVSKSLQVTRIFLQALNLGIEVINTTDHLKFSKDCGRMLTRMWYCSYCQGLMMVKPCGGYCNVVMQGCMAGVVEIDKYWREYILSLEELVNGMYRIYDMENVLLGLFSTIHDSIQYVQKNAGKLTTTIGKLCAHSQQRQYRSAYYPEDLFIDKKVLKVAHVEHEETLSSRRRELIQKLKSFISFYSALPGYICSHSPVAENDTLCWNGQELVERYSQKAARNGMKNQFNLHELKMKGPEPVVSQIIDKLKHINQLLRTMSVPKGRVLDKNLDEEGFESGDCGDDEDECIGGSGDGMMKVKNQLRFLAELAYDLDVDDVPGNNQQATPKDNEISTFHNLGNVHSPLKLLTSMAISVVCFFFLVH

palivizumab
did not exhibit any binding: binding to CHO-S cells expressing cynomolgus monkey GPC3, in words [1] | binding to GFP-transfected CHO cells, in words [2] | binding to JHH-5 cells, in words (JHH-5 cells (GPC3-mid)) | binding to JHH-7 cells, in words (JHH-7 cells (GPC3-high))
